PubChem BioAssay AID328 (DTP/NCI, 2004)
Where “and” joins values, the source holds several entries; their conditions need not be identical. Equal entries are not always repeated. Inconclusive results and toxic doses are left out.

Test system: BDF1 mice, P388 leukemia ip, median survival T/C
Assay: NCI In Vivo Anticancer Drug Screen. Data for tumor model P388 Leukemia (intraperitoneal) in B6D2F1 (BDF1) mice
Conditions: endpoint: median survival time, higher = longer survival
How it was run: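 T/C = treated-group survival ÷ vehicle-control survival; tumour transplanted into mice before dosing.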

[1] = dose: 100.0 mg/kg/injection, schedule: Q01DX009 (ip), vehicle: saline with Tween-80
[2] = dose: 6.25 mg/kg/injection, schedule: Q01DX009 (ip), vehicle: saline
[3] = dose: 12.5 mg/kg/injection, schedule: Q01DX009 (ip), vehicle: saline
[4] = dose: 25.0 mg/kg/injection, schedule: Q01DX009 (ip), vehicle: saline
[5] = dose: 50.0 mg/kg/injection, schedule: Q01DX009 (ip), vehicle: saline

## CCOC(=O)c1cc(C=O)c[nH]1
dose: 50.0 mg/kg/injection, schedule: Q01DX009 (ip), vehicle: saline with Tween-80
  T/C: 93 % of control
[1]
  T/C: 99 % of control
dose: 200.0 mg/kg/injection, schedule: Q01DX009 (ip), vehicle: saline with Tween-80
  T/C: 101 % of control

## CC(=O)Nc1cc2c(cc1[N+](=O)[O-])-c1ccc([N+](=O)[O-])cc1C2
dose: 6.25 mg/kg/injection, schedule: Q01DX009 (ip), vehicle: Klucel (hydroxypropylcellulose) (HPC)
  T/C: 89 % of control
dose: 12.5 mg/kg/injection, schedule: Q01DX009 (ip), vehicle: Klucel (hydroxypropylcellulose) (HPC)
  T/C: 97 % of control
dose: 25.0 mg/kg/injection, schedule: Q01DX009 (ip), vehicle: Klucel (hydroxypropylcellulose) (HPC)
  T/C: 89 % of control and 91 % of control

## N#C/C(=C\c1ccncc1)c1csc2ccccc12
dose: 50.0 mg/kg/injection, schedule: Q01DX011 (ip), vehicle: Klucel (hydroxypropylcellulose) (HPC)
  T/C: 111 % of control
dose: 100.0 mg/kg/injection, schedule: Q01DX011 (ip), vehicle: Klucel (hydroxypropylcellulose) (HPC)
  T/C: 107 % of control
dose: 200.0 mg/kg/injection, schedule: Q01DX011 (ip), vehicle: Klucel (hydroxypropylcellulose) (HPC)
  T/C: 107 % of control
dose: 400.0 mg/kg/injection, schedule: Q01DX011 (ip), vehicle: Klucel (hydroxypropylcellulose) (HPC)
  T/C: 89 % of control

## NC(c1ccccc1)c1c(O)ccc2ccccc12 (stereo not given)
dose: 100.0 mg/kg/injection, schedule: Q01DX009 (ip), vehicle: gum acacia
  T/C: 103 % of control
dose: 100.0 mg/kg/injection, schedule: Q04DX003 (ip), vehicle: gum acacia
  T/C: 109 % of control
dose: 200.0 mg/kg/injection, schedule: Q01DX009 (ip), vehicle: gum acacia
  T/C: 107 % of control
dose: 200.0 mg/kg/injection, schedule: Q04DX003 (ip), vehicle: gum acacia
  T/C: 122 % of control
dose: 400.0 mg/kg/injection, schedule: Q01DX009 (ip), vehicle: gum acacia
  T/C: 117 % of control
dose: 400.0 mg/kg/injection, schedule: Q04DX003 (ip), vehicle: gum acacia
  T/C: 122 % of control

## O=C1C=CC(=O)N1CN1CCOCC1
dose: 3.12 mg/kg/injection, schedule: Q01DX009 (ip), vehicle: saline
  T/C: 120 % of control
[2]
  T/C: 104 % of control
[3]
  T/C: 116 % of control
dose: 18.75 mg/kg/injection, schedule: Q01DX009 (ip), vehicle: saline
  T/C: 111 % of control

## COc1ncnc2c1c(C#N)cn2C1OC(CO)C(O)C1O (stereo not given)
[2]
  T/C: 102 % of control
[3]
  T/C: 102 % of control
[4]
  T/C: 102 % of control
[5]
  T/C: 95 % of control

## C/C(=N\OCc1cc2c(cc1Cl)OCO2)C(=O)O
dose: 100.0 mg/kg/injection, schedule: Q04DX003 (ip), vehicle: saline sonified
  T/C: 113 % of control
dose: 200.0 mg/kg/injection, schedule: Q04DX003 (ip), vehicle: saline sonified
  T/C: 109 % of control
dose: 400.0 mg/kg/injection, schedule: Q04DX003 (ip), vehicle: saline sonified
  T/C: 109 % of control

## CC1CNC2C(C)C3C(CC4C5CCC6CC(N)CCC6(C)C5CCC43C)OC2(O)C1 (stereo not given)
dose: 12.5 mg/kg/injection, schedule: Q04DX003 (ip), vehicle: saline with Tween-80
  T/C: 112 % of control
dose: 25.0 mg/kg/injection, schedule: Q04DX003 (ip), vehicle: saline with Tween-80
  T/C: 100 % of control
dose: 50.0 mg/kg/injection, schedule: Q04DX003 (ip), vehicle: saline with Tween-80
  T/C: 91 % of control

## CC(=O)N(C(C)=O)c1cc([N+](=O)[O-])ccc1C
dose: 100.0 mg/kg/injection, schedule: Q04DX003 (ip), vehicle: saline with Tween-80
  T/C: 106 % of control
dose: 200.0 mg/kg/injection, schedule: Q04DX003 (ip), vehicle: saline with Tween-80
  T/C: 93 % of control

## CC1CN1P(=O)(N1CC1C)N1CC1C (stereo not given)
[4]
  T/C: 100 % of control
dose: 33.0 mg/kg/injection, schedule: Q04DX003 (ip), vehicle: saline
  T/C: 222 % of control
[5]
  T/C: 105 % of control
dose: 50.0 mg/kg/injection, schedule: Q04DX003 (ip), vehicle: saline
  T/C: 177 % of control and 186 % of control
dose: 75.0 mg/kg/injection, schedule: Q04DX003 (ip), vehicle: saline
  T/C: 250 % of control and 116 % of control
dose: 100.0 mg/kg/injection, schedule: Q04DX003 (ip), vehicle: saline
  T/C: 236 % of control

## Cc1ccc(S(=O)(=O)Oc2cc([N+](=O)[O-])ccc2N)cc1
dose: 100.0 mg/kg/injection, schedule: Q01DX001 (ip), vehicle: saline
  T/C: 109 % of control
dose: 200.0 mg/kg/injection, schedule: Q01DX001 (ip), vehicle: saline
  T/C: 100 % of control
dose: 400.0 mg/kg/injection, schedule: Q01DX001 (ip), vehicle: saline
  T/C: 104 % of control

## CCN=NNc1ccc(C)cc1
dose: 8.25 mg/kg/injection, schedule: Q01DX009 (ip), vehicle: saline with Tween-80
  T/C: 90 % of control
dose: 16.5 mg/kg/injection, schedule: Q01DX009 (ip), vehicle: saline with Tween-80
  T/C: 100 % of control
dose: 66.0 mg/kg/injection, schedule: Q01DX009 (ip), vehicle: saline with Tween-80
  T/C: 100 % of control
[1]
  T/C: 108 % of control
